In patent US8440666B2, “Pyridazinone compounds and P2X7 receptor inhibitors” (Nissan Chemical Industries, Ltd., priority 2007, dated 2013):

biological target: T1, Human P2X7 (hP2X7) receptor (Homo sapiens, UniProt Q99572); test: Dye assay: BzATP-induced Yo-Pro-1 uptake in HEK293 cells stably expressing hP2X7; type: cell-based; conditions: BzATP (0.1 mM)-induced Yo-Pro-1 uptake, compounds 30 min pre-treatment, 90 min incubation
T1 construct: myc-His (from the pcDNA3.1/myc-HisA vector); expressed in transfected cells
T1 sequence (Q99572 1-595): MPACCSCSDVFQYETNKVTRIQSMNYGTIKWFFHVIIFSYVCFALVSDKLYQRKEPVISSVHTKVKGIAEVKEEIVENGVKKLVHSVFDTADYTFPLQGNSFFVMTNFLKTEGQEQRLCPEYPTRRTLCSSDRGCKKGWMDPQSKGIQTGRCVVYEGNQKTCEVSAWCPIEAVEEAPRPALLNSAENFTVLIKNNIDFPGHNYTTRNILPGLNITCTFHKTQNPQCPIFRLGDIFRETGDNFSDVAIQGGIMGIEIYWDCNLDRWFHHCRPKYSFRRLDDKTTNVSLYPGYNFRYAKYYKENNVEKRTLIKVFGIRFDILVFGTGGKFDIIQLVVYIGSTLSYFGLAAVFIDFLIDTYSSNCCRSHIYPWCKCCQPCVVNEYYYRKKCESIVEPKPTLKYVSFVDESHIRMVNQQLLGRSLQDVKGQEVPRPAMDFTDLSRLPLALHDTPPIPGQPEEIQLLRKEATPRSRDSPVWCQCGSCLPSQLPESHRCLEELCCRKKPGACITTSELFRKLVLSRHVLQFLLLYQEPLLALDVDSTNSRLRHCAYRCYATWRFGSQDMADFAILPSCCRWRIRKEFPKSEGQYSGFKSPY
Excerpt: Human P2X7 (hP2×7) was cloned from a normal human brain total RNA library by reverse transcription (using SuperScript II (Invitrogen)) and PCR (using KOD-plus-(TOYOBO)). PCR primers were designed according to hP2X7 sequence registered in GENBANK with a putative amino acid sequence consisting of 595 amino acid residues. The PCR fragments were inserted into pcDNA3.1/myc-HisA vector (Invitrogen) and sequenced for confirmation.
HEK293 cells were transfected with hP2×7/pcDNA3.1/myc-HisA by lipofection, and 1 day later, the cells were treated with 1 mg/mL G418, and resistant cells were selected by appropriately dilution. The resistant cells were cloned by reseeding at a low density.
P2X7 receptor antagonists were screened by a dye uptake assay using HEK293 cells stably expressing hP2×7. Cells were plated on a type I collagen-coated black/clear bottom 96-well plate at 20000 cells/well and a day later, treated with varying concentrations of various test compounds for 30 minutes, then treated with a dye (Yo-Pro-1) (final concentration 2 μM) and BzATP (final concentration 0.1 mM) and incubated for 90 minutes. Then, the fluorescence (indicating the BzATP-induced Yo-Pro-1 uptake mediated by the P2X7 receptor) was measured with a microplate reader (excitation wavelength: 485 nm, emission wavelength: 535 nm). The % inhibition rates were calculated and plotted against the logarithms of the concentrations to determine IC50.

Compared with `C[C@@H]1[C@H]2C[C@@H](C[C@H]1Nc1cnn(CC(=O)NCc3cccnc3)c(=O)c1Br)C2(C)C` [compound 12], `Cc1cnccc1CNC(=O)Cn1ncc(N[C@@H]2C[C@@H]3C[C@H]([C@H]2C)C3(C)C)c(Br)c1=O` [compound 170] is 6.5-fold lower in IC50: 20 nM for the first, 3.1 nM for the second.

Compared with `C[C@@H]1[C@H]2C[C@@H](C[C@H]1Nc1cnn(CC(=O)NCc3cnccn3)c(=O)c1Br)C2(C)C` [compound 14], `C[C@@H]1[C@H]2C[C@@H](C[C@H]1Nc1cnn(CC(=O)NCc3ccncn3)c(=O)c1Br)C2(C)C` [compound 103] is 1.5-fold lower in IC50: 21 nM for the first, 14 nM for the second.

Compared with `C[C@@H]1[C@H]2C[C@@H](C[C@H]1Nc1cnn(CC(=O)NC3CC3)c(=O)c1Br)C2(C)C` [compound 19], `CONC(=O)Cn1ncc(N[C@@H]2C[C@@H]3C[C@H]([C@H]2C)C3(C)C)c(Br)c1=O` [compound 202] is 3.7-fold higher in IC50: 38 nM for the first, 140 nM for the second. The first is the more potent here.

Going from `CC(NC(=O)Cn1ncc(N[C@@H]2C[C@@H]3C[C@H]([C@H]2C)C3(C)C)c(Br)c1=O)c1ccccc1` (stereo partly drawn) [compound 23] to `C[C@@H]1[C@H]2C[C@@H](C[C@H]1Nc1cnn(CC(=O)NC(C#N)c3ccccc3)c(=O)c1Br)C2(C)C` (stereo partly drawn) [compound 190], the IC50 rises from 34 nM to 54 nM (1.6-fold). The first is the more potent here.

Compared with `C[C@@H]1[C@H]2C[C@@H](C[C@H]1NC(=O)Cn1ncc(N[C@@H]3C[C@@H]4C[C@H]([C@H]3C)C4(C)C)c(Br)c1=O)C2(C)C` [compound 32], `CC(C)CNC(=O)Cn1ncc(N[C@@H]2C[C@@H]3C[C@H]([C@H]2C)C3(C)C)c(Br)c1=O` [compound 209] is 1.5-fold lower in IC50: 63 nM for the first, 42 nM for the second. The second is the more potent here.

First: O=C(Cn1ncc(NC23CC4CC(CC(C4)C2)C3)c(Br)c1=O)NCc1ccncc1 [compound 51]
Second: O=C(Cn1ncc(NCC23CC4CC(CC(C4)C2)C3)c(Br)c1=O)NCc1ccncc1 [compound 60]
The IC50 of the first is 4.4-fold lower: 16 nM for the first, 71 nM for the second.

First: CC1(C)[C@H]2CC[C@@H](CNc3cnn(CC(=O)NCc4ccncc4)c(=O)c3Br)[C@@H]1C2 [compound 54]
Second: CC1(C)C2CCC1(C)C(Nc1cnn(CC(=O)NCc3ccncc3)c(=O)c1Br)C2 (stereo not drawn) [compound 61]
The IC50 of the first is 1.6-fold lower: 26 nM for the first, 41 nM for the second.

Compared with `O=C(Cn1ncc(NC2C3CC4CC(C3)CC2C4)c(Br)c1=O)NCc1ccncc1` (stereo not drawn) [compound 74], `C[C@@H]1[C@H]2C[C@@H](C[C@H]1Nc1cnn(CC(=O)NCc3ccncc3)c(=O)c1Cl)C2(C)C` [compound 135] is 5.2-fold lower in IC50: 22 nM for the first, 4.2 nM for the second. The second is the more potent here.

`C[C@@H]1[C@H]2C[C@@H](C[C@H]1Nc1cnn(CC(=O)Nc3cccc([N+](=O)[O-])c3)c(=O)c1Br)C2(C)C` [compound 79] and `C[C@@H]1[C@H]2C[C@@H](C[C@H]1Nc1cnn(CC(=O)Nc3ccc(N(C)C)cc3)c(=O)c1Br)C2(C)C` [compound 94] are within 1.5-fold of each other in IC50: 46 nM for the first, 64 nM for the second.

First: C[C@@H]1[C@H]2C[C@@H](C[C@H]1Nc1cnn(Cc3ccccn3)c(=O)c1Br)C2(C)C [compound 87]
Second: C[C@@H]1[C@H]2C[C@@H](C[C@H]1Nc1cnn(CC(=O)NCc3ccnc4ccccc34)c(=O)c1Br)C2(C)C [compound 167]
The IC50 of the first is 2.8-fold higher: 62 nM for the first, 22 nM for the second. The second is the more potent here.

`C[C@@H]1[C@H]2C[C@@H](C[C@H]1Nc1cnn(CC(=O)Nc3ccc4c(c3)C(=O)N(C)C4=O)c(=O)c1Br)C2(C)C` [compound 88] and `CC(NC(=O)Cn1ncc(N[C@@H]2C[C@@H]3C[C@H]([C@H]2C)C3(C)C)c(Br)c1=O)c1ccc(F)cc1` (stereo partly drawn) [compound 178] are within 1.5-fold of each other in IC50: 44 nM for the first, 30 nM for the second.

Going from `COc1cc(OC)nc(Cn2ncc(N[C@@H]3C[C@@H]4C[C@H]([C@H]3C)C4(C)C)c(Br)c2=O)n1` [compound 89] to `COc1cc(CNC(=O)Cn2ncc(N[C@@H]3C[C@@H]4C[C@H]([C@H]3C)C4(C)C)c(Br)c2=O)on1` [compound 100], the IC50 rises from 35 nM to 54 nM (1.5-fold).

Compared with `C[C@@H]1[C@H]2C[C@@H](C[C@H]1Nc1cnn(CC(=O)NCc3ccnc(Cl)c3)c(=O)c1Br)C2(C)C` [compound 99], `C[C@@H]1[C@H]2C[C@@H](C[C@H]1Nc1cnn(CC(=O)NCc3ccnc(F)c3)c(=O)c1Br)C2(C)C` [compound 222] is 9.1-fold lower in IC50: 39 nM for the first, 4.3 nM for the second.

Going from `COc1cc(CNC(=O)Cn2ncc(N[C@@H]3C[C@@H]4C[C@H]([C@H]3C)C4(C)C)c(Br)c2=O)ccn1` [compound 104] to `C[C@@H]1[C@H]2C[C@@H](C[C@H]1Nc1cnn(CC(=O)NCc3ccnc(C#N)c3)c(=O)c1Br)C2(C)C` [compound 219], the IC50 falls from 57 nM to 31 nM (1.8-fold).

Compared with `C[C@@H]1[C@H]2C[C@@H](C[C@H]1Nc1cnn(CC(=O)NCc3cscn3)c(=O)c1Br)C2(C)C` [compound 106], `C[C@@H]1[C@H]2C[C@@H](C[C@H]1Nc1cnn(CC(=O)NCc3ccno3)c(=O)c1Br)C2(C)C` [compound 127] is 2.3-fold lower in IC50: 44 nM for the first, 19 nM for the second.

Going from `CC(C)NC(=O)Cn1ncc(N[C@@H]2C[C@@H]3C[C@H]([C@H]2C)C3(C)C)c(Cl)c1=O` [compound 134] to `CC(NC(=O)Cn1ncc(N[C@@H]2C[C@@H]3C[C@H]([C@H]2C)C3(C)C)c(Cl)c1=O)c1ccnc(F)c1` (stereo partly drawn) [compound 265], the IC50 falls from 20 nM to 3.9 nM (5.1-fold).

Compared with `C[C@@H]1[C@H]2C[C@@H](C[C@H]1Nc1cnn(CC(=O)NC(c3ccccc3)c3ccncc3)c(=O)c1Br)C2(C)C` (stereo partly drawn) [compound 169], `CC(NC(=O)Cn1ncc(N[C@@H]2C[C@@H]3C[C@H]([C@H]2C)C3(C)C)c(Br)c1=O)c1ccc(Cl)cc1` (stereo partly drawn) [compound 197] is 9.4-fold lower in IC50: 300 nM for the first, 32 nM for the second.

First: C[C@@H]1[C@H]2C[C@@H](C[C@H]1Nc1cnn(CC(=O)N/C(=N/O)c3ccncc3)c(=O)c1Br)C2(C)C [compound 172]
Second: C[C@@H]1[C@H]2C[C@@H](C[C@H]1Nc1cnn(CC(=O)NCc3ccc(O)cc3)c(=O)c1Br)C2(C)C [compound 205]
The IC50 of the first is 5.3-fold higher: 310 nM for the first, 58 nM for the second.

First: C[C@@H]1[C@H]2C[C@@H](C[C@H]1Nc1cnn(CC(=O)NCc3ccc(C(F)(F)F)c(F)c3)c(=O)c1Br)C2(C)C [compound 183]
Second: Cc1noc(C)c1CNC(=O)Cn1ncc(N[C@@H]2C[C@@H]3C[C@H]([C@H]2C)C3(C)C)c(Br)c1=O [compound 212]
The IC50 of the first is 7.7-fold higher: 230 nM for the first, 30 nM for the second.

`C[C@@H]1[C@H]2C[C@@H](C[C@H]1Nc1cnn(CC(=O)NC[C@H]3CCCN3C(=O)OC(C)(C)C)c(=O)c1Br)C2(C)C` [compound 201] and `C[C@@H]1[C@H]2C[C@@H](C[C@H]1Nc1cnn(CC(=O)NCC3CCCCC3)c(=O)c1Br)C2(C)C` [compound 208] are within 1.5-fold of each other in IC50: 90 nM for the first, 84 nM for the second.

`CC(NC(=O)Cn1ncc(NC2CC3CC(C2C)C3(C)C)c(Br)c1=O)c1ccnnc1` (stereo not drawn) [compound 220] and `CCC(NC(=O)Cn1ncc(N[C@@H]2C[C@@H]3C[C@H]([C@H]2C)C3(C)C)c(Cl)c1=O)c1ccnnc1` (stereo partly drawn) [compound 288] are within 1.5-fold of each other in IC50: 4.2 nM for the first, 3 nM for the second.

Compared with `C[C@@H]1[C@H]2C[C@@H](C[C@H]1Nc1cnn(CC(=O)Nc3nc(-c4ccncc4)cs3)c(=O)c1Cl)C2(C)C` [compound 226], `C[C@@H]1[C@H]2C[C@@H](C[C@H]1Nc1cnn(CC(=O)Nc3cccnc3)c(=O)c1Cl)C2(C)C` [compound 227] is 2.2-fold lower in IC50: 84 nM for the first, 38 nM for the second.

Going from `C[C@@H]1[C@H]2C[C@@H](C[C@H]1Nc1cnn(CC(=O)NCC3CCOCC3)c(=O)c1Cl)C2(C)C` [compound 232] to `C[C@@H]1[C@H]2C[C@@H](C[C@H]1Nc1cnn(CC(=O)NCc3ccnnc3)c(=O)c1Cl)C2(C)C` [compound 293], the IC50 falls from 37 nM to 3.5 nM (11-fold). The second is the more potent here.

Going from `C[C@@H]1[C@H]2C[C@@H](C[C@H]1Nc1cnn(CC(=O)NCc3ccccc3N(C)C)c(=O)c1Cl)C2(C)C` [compound 247] to `Cc1cncnc1CNC(=O)Cn1ncc(N[C@@H]2C[C@@H]3C[C@H]([C@H]2C)C3(C)C)c(Cl)c1=O` [compound 281], the IC50 rises from 32 nM to 190 nM (5.9-fold). The first is the more potent here.

First: C[C@@H]1[C@H]2C[C@@H](C[C@H]1Nc1cnn(CC(=O)NCc3ccc(NS(C)(=O)=O)cc3)c(=O)c1Cl)C2(C)C [compound 252]
Second: C[C@@H]1[C@H]2C[C@@H](C[C@H]1Nc1cnn(CC(=O)NCc3ccnc(C#N)c3)c(=O)c1Cl)C2(C)C [compound 254]
The IC50 of the first is 4.8-fold higher: 130 nM for the first, 27 nM for the second. The second is the more potent here.

`C[C@@H]1[C@H]2C[C@@H](C[C@H]1Nc1cnn(CC(=O)NC(CCO)c3ccncc3)c(=O)c1Cl)C2(C)C` (stereo partly drawn) [compound 253] and `C[C@@H]1[C@H]2C[C@@H](C[C@H]1Nc1cnn(CC(=O)N[C@H](CO)c3ccccc3)c(=O)c1Cl)C2(C)C` [compound 270] are within 1.5-fold of each other in IC50: 36 nM for the first, 30 nM for the second.

Compared with `C[C@@H]1[C@H]2C[C@@H](C[C@H]1Nc1cnn(CC(=O)N[C@@H](CO)c3ccccc3)c(=O)c1Cl)C2(C)C` [compound 271], `Cc1cc(NC(=O)Cn2ncc(N[C@@H]3C[C@@H]4C[C@H]([C@H]3C)C4(C)C)c(Cl)c2=O)sn1` [compound 292] is 4.9-fold higher in IC50: 14 nM for the first, 68 nM for the second.
